# Values of other authors as cited in patent US20020009704A1, “Oocyte vitrification technique” (priority 2000, published 2002).
# Test system: bovine oocytes
compound,measurement,value
OCCO [ethylene glycol],toxicity for bovine oocytes,relatively low toxicity
